Test results from patent US5928645A, “Extracted substance having anti-HIV activity” (Young Bok Han & Korean Assoc. of Creation Research, priority 1992, dated 1999).
Like-named read-outs stand apart in the source and are kept apart here.

Assays:
[1] = test system: HIV-infected cells (T cell line SupT1); assay: Syncytium-formation assay (number of multinucleate cells); format: cell-based; conditions: three-day incubation
Method: To evaluate toxicity of the extracted substances on a T cell line (SupT1), maximum acceptable concentrations of antiviral agents were determined as follows:
After incubation, the cells were treated with trypan blue. The number of cells that excluded the dye was counted using a hemocytometer. "TCID50 " is defined as the 50% tissue culture-infective dose. (Reference: Techniques in HIV research, ed. Aldovini, A., and Walter, B. D., Stockton Press, N.Y. Unitd States, Chapter 4. Quantitative assay for virus infectivity, pp. 71-73, 1990.) The 50% tissue culture-infective dose (TCID50) is calculated using the method of Reed and Muench (Dulbecco, R., "Endpoint Method-Measurement of the infectious titer of a viral sample" in the chapter entitled: The Nature of Viruses in Virology, Second Edition, J. P. Lippincott, Philadelphia, pp. 22-25, 1988). This method is applicable for measuring the infectious titer of a viral sample from an assay involving a series of progressive dilutions of virus. To generate the 50% endpoint dilution, an empirical pooling of the results is done after reading the plate for visible infection at all of the dilutions tested. In cell cultures, the tissue culture infective dose (TCID50) is the dilution of virus suspension that infects 50% of the cell cultures as measured by visible CPE.
After a three-day incubation the number of multinucleate cells in each culture were counted. As comparative tests, similar experiments were performed using AZT or berberine, rather than the extract of the present invention, to treat the cells.

[2] = test system: HIV reverse transcriptase; conditions: cited from earlier work
HIV = conditions: Tan et al. 1992; cited from earlier work
reverse transcriptase = assay: Reverse transcriptase activity of HIV-infected H9 cells; format: cell-based; conditions: 0.5 μg/ml
Method: The effect of the extract of the present invention on reverse transcriptase activity and on viral replication was also measured in H9 host cells. HIV infected H9 cells were cultured in RPMI 1640 supplemented with 10% (v/v) of heat-inactivated fetal calf serum and 1% (v/v) […] Every third day 1/4 of the cultures were transferred to new media containing the same concentration of the extract. The cultures were harvested after 9 days and centrifuged for 3 minutes in an Eppendorf centrifuge. 600 μl of supernatant was mixed 300 μl of 30% polyethylene glycol (PEG) and then centrifuged for 10 minutes. The pellet was resuspended in RT suspension buffer (50 mM Tris, pH 7.5, 1 mM DTT, 20% glycerol, 0.25% Triton X-100). These virus samples were frozen at -70° C. until assayed. Aliquots of virus (10 μl) were incubated with 20 μl of a cocktail containing 50 mM Tris, pH 7.5, 5 mM DTT, 5 mM MgCl2, 150 mM KCl, 0.05% Triton X-100, 0.3 mM glutathione, 0.5 mM EGTA, 50 μg/ml poly(rA)dT, 10μ Ci thymidine triphosphate, and 17.25 μl distilled water for 1 hour at 37° C. […] Precipitates were collected on Whatman GF/C glass fibers, washed several times with ice-cold 5% TCA and once with 70% ethanol, air dried and counted in a liquid scintillation counter.

[3] = test system: ABEI-microperoxidase-H2 O2 system; assay: Antioxidant activity by chemiluminescence (inhibition of light intensity); format: biochemical
Source text: Therefore, we characterized the extract of the present invention with respect to its ability to function as an antioxidant. We compared the extract to the known antioxidant t-butylhydroxy toluene (BHT) using a chemiluminescence assay developed in this laboratory. […] Therefore, it is proposed that the extract has anti-HIV effect.
Materials: microperoxidase (MP, Sigma Chemical Company, St. Louis, Mo., U.S.A.), aminobuty ethylisoluminol (ABEI, Sigma Chemical Company, St. Louis, Mo., U.S.A.), t-butylhydroxy toluene (BHT, Sigma Chemical Company, St. Louis, Mo., U.S.A.).
An ABEI-microperoxidase-H2 O2 system was used to assay the antioxidant activity of the extract of the present invention and also that of the known antioxidant BHT. The activity of berberine as an antioxidant was also assessed.
ABEI was used at 0.18 μM. Compounds being assayed were used at 10 mg/ml as a maximum concentration and also at serial dilutions. 200 μL of ABEI, t-butylhydroxy toluene (BHT), pure berberine or the extracted substance at 10 mg/ml (or a serial dilution thereof) were put in a polystyrene tube suitable for use in a Berthold 9502 luminometer. Hydrogen peroxide (0.35%) and microperoxidase (0.01 mg/ml) were autoinjected into the tube to start the chemiluminescence reaction. Chemiluminescence from the reaction was measured for 2 seconds using a Berthold Luminometer 9502 (Clilumat). In control samples distilled water and ethyl alcohol were used. The antioxidant activity of the extract was compared with commercial antioxidant BHT. The antioxidant activity of BHT has been studied for many years (Branen, A. L.; Toxicological and biochemistry of butylated hydrosyanisole and butylated hydroxytoluene. J. Am. Oil Chem. Soc. 52:59, 1975). BHT removes free radicals in oxidation reactions, and it inhibits oxidation of materials.
An antioxidant present in the sample will prevent ABEI from being oxidized by microperoxidase, thus inhibiting chemiluminescence. Antioxidant activity was calculated from the chemiluminescence intensity using the following expression: [formula]

[4] = with respect to the template-primer complex, (rA)n, (dT)
[5] = with respect to the triphosphate substrate, dTTP

Cc1cn([C@H]2C[C@H](N=[N+]=[N-])[C@@H](CO)O2)c(=O)[nH]c1=O [AZT, azidothymidine]
No. of Multiple-Nucleate Cells ([1]; 0.2 μg/mL): 0
No. of Multiple-Nucleate Cells ([1]; 0.5 μg/mL): 1
No. of Multiple-Nucleate Cells ([1]; 1 μg/mL): 0
No. of Multiple-Nucleate Cells ([1]; 5 μg/mL): 0

O=c1c(O)c(-c2ccc(O)c(O)c2)oc2cc(O)cc(O)c12 [quercetin]
mode of inhibition [2, 4]: partially competitive
mode of inhibition [2, 5]: noncompetitive

O=c1cc(-c2ccccc2)oc2cc(O)c(O)c(O)c12 [baicalein]
mode of inhibition [2, 4]: partially competitive
mode of inhibition [2, 5]: noncompetitive

COc1ccc2cc3[n+](cc2c1OC)CCc1cc2c(cc1-3)OCO2 [berberine chloride]
order of anti-HIV effect (HIV): jatrorrhizine chloride>berberine chloride>coptisine chloride

COc1ccc2cc3[n+](cc2c1OC)CCc1cc2c(cc1-3)OCO2 [Berberine, berberine]
No. of Multiple-Nucleate Cells ([1]; 0.1 μg/mL): 8
No. of Multiple-Nucleate Cells ([1]; 0.5 μg/mL): 5
No. of Multiple-Nucleate Cells ([1]; 1 μg/mL): 2
No. of Multiple-Nucleate Cells ([1]; 3 μg/mL): 1
inhibition of viral RT activity (reverse transcriptase): marked inhibitory effect on RT activity
Percentage of inhibition of light intensity ([3]; 0.63 mg/ml): 11%
Percentage of inhibition of light intensity ([3]; 1.25 mg/ml): 12%
Percentage of inhibition of light intensity ([3]; 2.5 mg/ml): 12%
Percentage of inhibition of light intensity ([3]; 5.0 mg/ml): 21%
Percentage of inhibition of light intensity ([3]; 10.0 mg/ml): 57%
antioxidant activity compared with the total extract ([3]; 0.63-10.0 mg/ml): much lower

c1c2c(cc3c1OCO3)-c1cc3ccc4c(c3c[n+]1CC2)OCO4 [coptisine chloride]
order of anti-HIV effect (HIV): jatrorrhizine chloride>berberine chloride>coptisine chloride

O=c1c(O)c(-c2ccc(O)c(O)c2)oc2cc(O)c(O)c(O)c12 [quercetagetin]
mode of inhibition [2, 4]: partially competitive
mode of inhibition [2, 5]: noncompetitive

COc1cc2c(cc1O)CC[n+]1cc3c(OC)c(OC)ccc3cc1-2 [jatrorrhizine chloride]
order of anti-HIV effect (HIV): jatrorrhizine chloride>berberine chloride>coptisine chloride
